# Article PMC5343027, “Crystal Structure of the Chloroplastic Oxoene Reductase ceQORH from Arabidopsis thaliana” (Frontiers in Plant Science, 2017)
# How the values were obtained:
# [1] = target: T1, ceQORH (chloroplast envelope quinone oxidoreductase homolog) (Arabidopsis thaliana, UniProt Q9SV68); experiment: X-ray crystal structure, […] Å, ternary complex with 13-KOTE; format: binding
# T1 sequence (Q9SV68 1-329): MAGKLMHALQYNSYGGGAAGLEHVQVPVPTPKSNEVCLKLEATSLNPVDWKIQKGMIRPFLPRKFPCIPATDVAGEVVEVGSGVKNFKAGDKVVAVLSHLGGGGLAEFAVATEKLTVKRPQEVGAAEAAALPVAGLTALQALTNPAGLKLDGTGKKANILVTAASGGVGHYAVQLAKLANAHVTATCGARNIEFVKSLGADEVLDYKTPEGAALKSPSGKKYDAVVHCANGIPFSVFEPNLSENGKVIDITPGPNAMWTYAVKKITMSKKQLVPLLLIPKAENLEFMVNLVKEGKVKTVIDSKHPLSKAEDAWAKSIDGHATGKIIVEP
# [2] = target: T1, ceQORH (chloroplast envelope quinone oxidoreductase homolog); experiment: X-ray crystal structures, […] Å (binary) and […] Å (ternary with NADP+); format: binding
# [3] = target: T1, ceQORH (chloroplast envelope quinone oxidoreductase homolog); experiment: enzyme inhibition kinetics ([…] nm) after […] s preincubation, […] trans-1, […] diphenyl-2-propenone; low-quality crystal structure with NADPH not used; format: biochemical
structure (smiles),measurement,setting,value
NC(=O)c1ccc[n+]([C@@H]2O[C@H](COP(=O)(O)OP(=O)(O)OC[C@H]3O[C@@H](n4cnc5c(N)ncnc54)[C@H](OP(=O)(O)O)[C@@H]3O)[C@@H](O)[C@H]2O)c1 [NADP^+],"X-ray crystal structure, 2.81 Å, ternary complex with 13-KOTE",[1],NADP^+ is bound at the interface of the two domains and the nicotinamide ring is in the vicinity of the catalytic site
"CC/C=C\CC(=O)/C=C/C=C/CCCCCCCC(=O)O [13-KOTE, 13-oxo-9(Z), 11(E), 15(Z)-octadecatrienoic acid]","X-ray crystal structures, 2.78 Å (binary) and 2.81 Å (ternary with NADP+)",[2],"apo-ceQORH (5A3V), ceQORH-13-KOTE (5A3J), and ceQORH-NADP^+-13-KOTE (5A4D)"
"CCCCCC(=O)/C=C/C=C\CCCCCCCC(=O)O [13-KODE, 13-oxo-9(Z),11(E)-octadecadienoic acid]",IC50,[3],36 µM
